Reference: ChEMBL document CHEMBL1201862, “PubChem BioAssay data set” (2004)
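A five-concentration, 48-hour dose response in 96-well plates underlies each endpoint, interpolated linearly between surrounding concentrations. Here, GI50 denotes the concentration required for 50% inhibition of growth.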 The source made the active and inactive calls. Rule as the data show it: active = GI50 up to about 1.1 µM and inactive = higher.

Legend:
Test in all cases: NCI anticancer screen, dose series, 48 h
TK-10 = test system: TK-10
RPMI-8226 = test system: RPMI-8226
SK-MEL-28 = test system: SK-MEL-28
SN12C = test system: SN12C
SR = test system: SR
MDA-N = test system: MDA-N
K562 = test system: K562
UO-31 = test system: UO-31
MDA-MB-231 = test system: MDA-MB-231
MCF7 = test system: MCF7
SNB-19 = test system: SNB-19
T47D = test system: T47D
MOLT-4 = test system: MOLT-4
MDA-MB-435 = test system: MDA-MB-435
SW-620 = test system: SW-620
A498 = test system: A498
KM12 = test system: KM12
OVCAR-8 = test system: OVCAR-8
UACC-257 = test system: UACC-257
Hs-578T = test system: Hs-578T
PC-3 = test system: PC-3
Malme-3M = test system: Malme-3M
HCC 2998 = test system: HCC 2998
SK-OV-3 = test system: SK-OV-3
SNB-75 = test system: SNB-75
HCT-116 = test system: HCT-116
SK-MEL-5 = test system: SK-MEL-5
NCI-H522 = test system: NCI-H522
ACHN = test system: ACHN
SF-268 = test system: SF-268
DU-145 = test system: DU-145
LOX IMVI = test system: LOX IMVI
HOP-62 = test system: HOP-62
CCRF-CEM = test system: CCRF-CEM
OVCAR-3 = test system: OVCAR-3
786-0 = test system: 786-0
HL-60 = test system: HL-60
SK-MEL-2 = test system: SK-MEL-2
U-251 = test system: U-251
NCI-H23 = test system: NCI-H23
A549 = test system: A549
IGROV-1 = test system: IGROV-1
HT-29 = test system: HT-29
EKVX = test system: EKVX
HOP-92 = test system: HOP-92
UACC-62 = test system: UACC-62
RXF 393 = test system: RXF 393
COLO 205 = test system: COLO 205
SF-295 = test system: SF-295
HCT-15 = test system: HCT-15
OVCAR-4 = test system: OVCAR-4
NCI-H460 = test system: NCI-H460
OVCAR-5 = test system: OVCAR-5
BT-549 = test system: BT-549
NCI/ADR-RES = test system: NCI/ADR-RES
M14 = test system: M14
CAKI-1 = test system: CAKI-1
NCI-H226 = test system: NCI-H226
SF-539 = test system: SF-539

COC1C=COC2(C)Oc3c(C)c(O)c4c(c3C2=O)/C(=N/C2CCC(O)OC2C)C=C(NC(=O)/C(C)=C\C(=O)C2CC2C(O)C(C)C(O)C(C)C(OC(C)=O)C1C)C4=O (stereo not drawn)
GI50 (TK-10): 2.9 µM (inactive) | GI50 (RPMI-8226): 0.962 µM (active) | GI50 (SK-MEL-28): 2.05 µM (inactive) | GI50 (SN12C): 1.61 µM (inactive) | GI50 (SR): 1.7 µM (inactive) | GI50 (MDA-N): 1.88 µM (inactive) | GI50 (K562): 2.22 µM (inactive) | GI50 (UO-31): 2.52 µM (inactive) | GI50 (MDA-MB-231): 2.07 µM (inactive) | GI50 (MCF7): 1.89 µM (inactive) | GI50 (SNB-19): 3.47 µM (inactive) | GI50 (T47D): 2.69 µM (inactive) | GI50 (MOLT-4): 1.94 µM (inactive) | GI50 (MDA-MB-435): 1.79 µM (inactive) | GI50 (SW-620): 1.88 µM (inactive) | GI50 (A498): 3.05 µM (inactive) | GI50 (KM12): 2.84 µM (inactive) | GI50 (OVCAR-8): 1.69 µM (inactive) | GI50 (UACC-257): 2.22 µM (inactive) | GI50 (Hs-578T): 2.41 µM (inactive) | GI50 (PC-3): 2.3 µM (inactive) | GI50 (Malme-3M): 1.69 µM (inactive) | GI50 (HCC 2998): 2.47 µM (inactive) | GI50 (SK-OV-3): 7.96 µM (inactive) | GI50 (SNB-75): 3.09 µM (inactive) | GI50 (HCT-116): 1.79 µM (inactive) | GI50 (SK-MEL-5): 1.95 µM (inactive) | GI50 (NCI-H522): 0.946 µM (active) | GI50 (ACHN): 3.13 µM (inactive) | GI50 (SF-268): 2.97 µM (inactive) | GI50 (DU-145): 2.54 µM (inactive) | GI50 (LOX IMVI): 1.61 µM (inactive) | GI50 (HOP-62): 3.04 µM (inactive) | GI50 (CCRF-CEM): 0.474 µM (active) | GI50 (OVCAR-3): 0.365 µM (active) | GI50 (786-0): 1.66 µM (inactive) | GI50 (HL-60): 2.14 µM (inactive) | GI50 (SK-MEL-2): 3.48 µM (inactive) | GI50 (U-251): 2.77 µM (inactive) | GI50 (NCI-H23): 1.79 µM (inactive) | GI50 (A549): 3.48 µM (inactive) | GI50 (IGROV-1): 2.4 µM (inactive) | GI50 (HT-29): 1.15 µM (inactive) | GI50 (EKVX): 3.13 µM (inactive) | GI50 (HOP-92): 2.07 µM (inactive) | GI50 (UACC-62): 2.01 µM (inactive) | GI50 (RXF 393): 1.86 µM (inactive) | GI50 (COLO 205): 1.33 µM (inactive) | GI50 (SF-295): 3.72 µM (inactive) | GI50 (HCT-15): 2.94 µM | GI50 (OVCAR-4): 3.09 µM (inactive) | GI50 (NCI-H460): 3.26 µM (inactive) | GI50 (OVCAR-5): 2.88 µM (inactive) | GI50 (BT-549): 2.44 µM (inactive) | GI50 (NCI/ADR-RES): 14.2 µM (inactive) | GI50 (M14): 1.97 µM (inactive) | GI50 (CAKI-1): 3.24 µM (inactive) | GI50 (NCI-H226): 2.65 µM (inactive) | GI50 (SF-539): 2.33 µM (inactive)

Nc1cc2c3c(c1)Oc1cc(N)cc4c1C3c1c(cc(N)cc1O4)O2
GI50 (TK-10): 41.7 µM (inactive) | GI50 (RPMI-8226): 14.7 µM (inactive) | GI50 (SK-MEL-28): 47.3 µM (inactive) | GI50 (SN12C): 16.7 µM (inactive) | GI50 (SR): 15.5 µM (inactive) | GI50 (MDA-N): 17.8 µM (inactive) | GI50 (K562): 30.8 µM (inactive) | GI50 (UO-31): 47.2 µM (inactive) | GI50 (MDA-MB-231): 16.2 µM (inactive) | GI50 (MCF7): 24.8 µM (inactive) | GI50 (SNB-19): 37.5 µM (inactive) | GI50 (T47D): 20.7 µM (inactive) | GI50 (MOLT-4): 39.6 µM (inactive) | GI50 (MDA-MB-435): 29 µM (inactive) | GI50 (SW-620): 33.7 µM (inactive) | GI50 (A498): 63.8 µM (inactive) | GI50 (KM12): 22.9 µM (inactive) | GI50 (OVCAR-8): 9.48 µM (inactive) | GI50 (UACC-257): 30.5 µM (inactive) | GI50 (Hs-578T): 24.2 µM (inactive) | GI50 (PC-3): 26.1 µM (inactive) | GI50 (Malme-3M): 6.32 µM (inactive) | GI50 (HCC 2998): 34.9 µM (inactive) | GI50 (SK-OV-3): 46.5 µM (inactive) | GI50 (SNB-75): 19.3 µM (inactive) | GI50 (HCT-116): 21.7 µM (inactive) | GI50 (SK-MEL-5): 11.9 µM (inactive) | GI50 (NCI-H522): 21.2 µM (inactive) | GI50 (ACHN): 22 µM (inactive) | GI50 (SF-268): 12.5 µM (inactive) | GI50 (DU-145): 3.03 µM (inactive) | GI50 (LOX IMVI): 17.9 µM (inactive) | GI50 (HOP-62): 25.7 µM (inactive) | GI50 (CCRF-CEM): 43.4 µM (inactive) | GI50 (OVCAR-3): 20.2 µM (inactive) | GI50 (786-0): 25.3 µM (inactive) | GI50 (HL-60): 23.9 µM (inactive) | GI50 (SK-MEL-2): 28.9 µM (inactive) | GI50 (U-251): 43.1 µM (inactive) | GI50 (NCI-H23): 33 µM (inactive) | GI50 (A549): 32.5 µM (inactive) | GI50 (IGROV-1): 10.4 µM (inactive) | GI50 (HT-29): 25.3 µM (inactive) | GI50 (EKVX): 11.6 µM (inactive) | GI50 (HOP-92): 57.5 µM (inactive) | GI50 (UACC-62): 26.4 µM (inactive) | GI50 (RXF 393): 12.3 µM (inactive) | GI50 (COLO 205): 16.1 µM (inactive) | GI50 (SF-295): 26.2 µM (inactive) | GI50 (HCT-15): 18.3 µM | GI50 (OVCAR-4): 56.5 µM (inactive) | GI50 (NCI-H460): 30.3 µM (inactive) | GI50 (OVCAR-5): 29 µM (inactive) | GI50 (BT-549): 15.2 µM (inactive) | GI50 (NCI/ADR-RES): 6.32 µM (inactive) | GI50 (M14): 26.9 µM (inactive) | GI50 (CAKI-1): 14.4 µM (inactive) | GI50 (NCI-H226): 3.07 µM (inactive) | GI50 (SF-539): 15.7 µM (inactive)
